Results published in patent publication US7112698B2, “4-(c2-6alkoxy)-substituted chalcones as therapeutic agents” (Spear Therapeutics Limited, priority 2001, dated 2006).

Key:
[1] = system: K562 human leukemia cell line; conditions: background, antitumour activity; cited from earlier work
MCF-7 cells = experiment: MCF-7 cell line (non-induced) cytotoxicity assay, MTT; type: cell-based; conditions: Homo sapiens, MCF7; non-induced MCF-7 cells, 96 hours, MTT; read-out: MCF-7 Cells IC50
From the text: (§1) CYP1A1 and CYP1B1 enzyme activity is induced by TCDD (tetrachlorodibenzodioxin (Dioxin)) in breast tumour MCF-7 cells (see, e.g., Sutter et al., 1994). CYP1B1 is expressed in a variety of human tumours, and can be inducible by TCDD in numerous cell types including breast, liver, lung, and kidney (see, e.g., Murray et al., 1997). CYP1B1 is known to catalyse estradiol 4-hydroxylation metabolism. In untreated culture, the constitutive rate of estradiol E2 metabolism in MCF-7 cells is minimal. However, treatment with TCDD causes a marked increase in the rate of E2 metabolism (see, e.g., Spink et al., 1994). […] Therefore the cytotoxicity of compounds in non-induced MCF-7 cells correlates to the cytotoxicity of compounds against normal cells, whilst the cytotoxicity of compounds against TCDD-induced MCF-7 cells correlates to the cytotoxicity of compounds against real tumours that express CYP1B1.
(§2) The cytotoxicity of compounds in non-induced MCF-7 cells correlates to the cytotoxicity of compounds against normal cells, whilst the cytotoxicity of compounds against TCDD-induced MCF-7 cells correlates to the cytotoxicity of compounds against real tumours that express CYP1B1.
(§3) Cells were maintained in RPMI 1640 with Glutamax 1 (Life Technologies) with 10% (v/v) heat inactivated foetal calf serum (Hybrimax. Sigma), at 37° C., 5% CO2/95% air with 100% humidity and passaged using trypsin/EDTA. 1×10^3 cells were plated out in 100 μl medium per well of 96-well flat-bottomed plates (Fisher). After 4 hours to allow adherance, 100 μl of medium containing TCDD (British Greyhound Chromatography; 10 μM stock in DMSO (dimethylsulfoxide)) or medium with 0.2% (v/v) DMSO as control was added to each well to give a final concentration of 10 nM TCDD, 0.1% (v/v) DMSO, for 24 hours to allow maximal CYP expression. The medium was then carefully aspirated and 100 μl fresh medium added. Within 30 minutes test compound was added in quadruplicate in 100 μl medium (with or without inhibitors) at double the final concentration from 100 mM stock in DMSO to give a final concentration of not more than 0.1% (v/v) DMSO, or DMSO solvent alone at 0.1% (v/v) as control. The cells were then allowed to grow on for 96 hours to give 80–90% confluence in the control wells. 50 μl MTT (Thiazol blue, Sigma) at 2 mg/ml in Dulbecco's phosphate buffered saline-A, was then added to each well for 3 hours. All medium was aspirated, then the formazan product generated by viable cells was solubilized with 150 μl DMSO. Plates were vortexed and the absorbance at 540 nm determined using a plate reader. Results were expressed as the percentage of 100% (control) proliferation and the IC50 calculated using the line of best fit for a sigmoidal dose response curve with variable slope using Graphpad Prizm software. All determinations were carried out in at least triplicate.

TCDD-induced MCF-7 cells = experiment: TCDD-induced MCF-7 cell line cytotoxicity assay, MTT; type: cell-based, human; conditions: for IC50: 96 hours, MTT
From the text: as §1, §2
as §3, with “triplicate. […]” for “triplicate.”

[2] = system: MDA-468 advanced breast cancer cell line; experiment: MDA-468 tumour cell line cytotoxicity assay; type: cell-based, human
Description: (§4) Cells were maintained in RPMI 1640 with Glutamax 1 (Life Technologies) with 10% (v/v) heat inactivated foetal calf serum (Hybrimax. Sigma), at 37° C., 5% CO2/95% air with 100% humidity and passaged using trypsin/EDTA. 1×10^3 cells were plated out in 100 μl medium per well of 96-well flat-bottomed plates (Fisher). […] The medium was then carefully aspirated and 100 μl fresh medium added. […] 50 μl MTT (Thiazol blue, Sigma) at 2 mg/ml in Dulbecco's phosphate buffered saline-A, was then added to each well for 3 hours. All medium was aspirated, then the formazan product generated by viable cells was solubilized with 150 μl DMSO. Plates were vortexed and the absorbance at 540 nm determined using a plate reader. […] All determinations were carried out in at least triplicate.
(§5) This cell culture based assay is performed using the two cell lines MDA-468 and MCF-10A. The MDA468 cell line is an advanced breast cancer cell line, whilst the MCF-10A cell line is a normal breast cell line.
(§6) This assay was performed using the two cell lines MDA-468 and MCF-10A according to the procedure described above for the MCF-7 assay, but without the addition of TCDD.
(§7) The tumour selectivity differential factor (TSDF) is calculated by dividing the IC50 obtained from the MCF-10A data by the IC50 obtained from the MDA-468 data.

[3] = system: MCF-10A normal breast cell line; experiment: MCF-10A normal cell line cytotoxicity assay; type: cell-based; conditions: Homo sapiens, without TCDD
Description: as §4, §5, §6, §7

SMILES | IC50 [1] | IC50 (MCF-7 cells) | increase in the cytotoxic activity by the induction of CYP1B1 (TCDD-induced MCF-7 cells; FIG. 1, un-induced versus TCDD-induced MCF-7 cells) | IC50 (TCDD-induced MCF-7 cells; Homo sapiens, MCF7, MCF-7 cells induced with 10 nM TCDD for 24 hours) | Tumour Selectivity Differential Factor (TCDD-induced MCF-7 cells; MCF-7 IC50 versus TCDD-induced MCF-7 IC50 (Table 1)) | IC50 (TCDD-induced MCF-7 cells; MCF-7 cells induced with 10 nM TCDD for 24 hours) | more toxic to “tumour” cells than to “normal” cells (TCDD-induced MCF-7 cells; TCDD-induced MCF-7 versus MCF-7) | IC50 ([2]; Homo sapiens, without TCDD) | Tumour Selectivity Differential Factor ([2]; IC50 MCF-10A divided by IC50 MDA-468 (Table 2)) | more toxic to cancer cells than to normal cells (tumour selectivity) ([2]; MDA-468 versus MCF-10A) | IC50 [3]
CC(=O)/C=C/c1ccc(O)cc1 [(E)-1-(4′-hydroxyphenyl)but-1-en-3-one] | 60 µM | – | – | – | – | – | – | – | – | – | –
CCCOc1ccc(/C=C/C(=O)c2cc(OC)cc(OC)c2)cc1 [DMU-175, (E)-1-(4-propoxyphenyl)-3-(3,5-dimethoxyphenyl)prop-1-en-3-one] | – | 15 µM | 28 fold | 0.54 µM | 30 | 0.5 µM | 30 fold | 1.4 µM | 11 | 11 fold | 16 µM
